From paper PMC6980656 (Cell chemical biology, 2019)
Values belong to the compound of their own block, whether it stands above or below them.

How the values were obtained:
[1] = tested on: pCDK1 Y15, PARP cleavage, γH2Ax; test: Immunoblot of downstream markers; type: cell-based; conditions: MOLT4 cells; for downstream changes (pCDK1 Y15, PARP cleavage, γH2Ax): 100 nM
[2] = tested on: 300 suspension and hematopoietic cancer cell lines; test: PRISM pooled cytotoxicity assay; type: cell-based
OVCAR8 cells = test: Synergy co-treatment, CellTiter-Glo in OVCAR8 cells; type: cell-based; conditions: for synergy with Olaparib: 72 hr co-treatment
MOLT4 cells [3] = test: Cell cycle analysis by propidium iodide staining, parental MOLT4; type: cell-based; conditions: PI staining; for effect on cell cycle (G2/M proportion): 100 nM
Wee1 [4] = molecular target: T1, Wee1 (Homo sapiens, UniProt P30291); test: Immunoblot of Wee1 degradation in parental MOLT4 cells; type: cell-based
T1 sequence (P30291 whole entry): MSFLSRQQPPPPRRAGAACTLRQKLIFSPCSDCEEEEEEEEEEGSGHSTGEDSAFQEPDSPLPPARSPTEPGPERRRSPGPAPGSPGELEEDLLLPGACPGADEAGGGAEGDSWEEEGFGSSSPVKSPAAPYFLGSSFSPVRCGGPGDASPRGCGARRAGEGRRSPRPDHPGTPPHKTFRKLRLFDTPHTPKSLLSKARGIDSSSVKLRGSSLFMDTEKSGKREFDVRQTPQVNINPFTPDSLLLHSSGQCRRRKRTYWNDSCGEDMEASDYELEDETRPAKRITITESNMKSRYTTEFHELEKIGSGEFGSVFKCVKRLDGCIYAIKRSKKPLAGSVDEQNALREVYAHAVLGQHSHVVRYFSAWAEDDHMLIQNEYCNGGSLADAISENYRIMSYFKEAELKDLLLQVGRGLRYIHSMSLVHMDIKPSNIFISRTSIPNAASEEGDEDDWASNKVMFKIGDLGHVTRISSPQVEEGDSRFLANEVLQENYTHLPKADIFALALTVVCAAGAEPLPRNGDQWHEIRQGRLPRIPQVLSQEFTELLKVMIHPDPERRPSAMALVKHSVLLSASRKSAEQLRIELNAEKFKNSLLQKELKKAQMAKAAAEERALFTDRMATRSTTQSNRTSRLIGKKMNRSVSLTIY

Wee1 [5] = molecular target: T1, Wee1; test: LanthaScreen FRET-based assay; type: binding; conditions: for engagement of recombinant Wee1: LanthaScreen, Table S1
[6] = tested on: MCF10A non-transformed mammary epithelial cell line; test: Image-based cell cycle assay in MCF10A
PLK1 [7] = molecular target: T2, PLK1 (Homo sapiens, UniProt P53350); test: KINOMEscan profiling; type: binding; conditions: 1 μM
T2 sequence (P53350 whole entry): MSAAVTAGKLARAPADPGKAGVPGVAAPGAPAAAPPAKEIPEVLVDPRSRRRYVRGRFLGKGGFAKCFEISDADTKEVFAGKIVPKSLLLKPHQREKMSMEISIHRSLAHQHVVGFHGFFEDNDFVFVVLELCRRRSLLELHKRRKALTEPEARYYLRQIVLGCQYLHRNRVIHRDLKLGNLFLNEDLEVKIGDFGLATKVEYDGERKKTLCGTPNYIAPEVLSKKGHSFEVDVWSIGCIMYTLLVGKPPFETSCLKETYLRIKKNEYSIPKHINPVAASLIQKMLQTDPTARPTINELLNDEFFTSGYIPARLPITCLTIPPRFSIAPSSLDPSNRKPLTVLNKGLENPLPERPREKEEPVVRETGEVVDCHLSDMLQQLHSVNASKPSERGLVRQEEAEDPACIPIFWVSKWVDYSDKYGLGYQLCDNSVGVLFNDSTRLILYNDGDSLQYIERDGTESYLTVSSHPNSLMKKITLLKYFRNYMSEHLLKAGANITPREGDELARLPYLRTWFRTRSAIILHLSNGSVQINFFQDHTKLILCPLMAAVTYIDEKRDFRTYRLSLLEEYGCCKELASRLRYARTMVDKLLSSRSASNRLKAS

[8] = tested on: phosphorylation of CDK1 at Tyr15 (pCDK1 Y15); test: Immunoblot of pCDK1 Y15 in parental MOLT4 cells; type: cell-based
MOLT4 cells [9] = test: CellTiter-Glo cell viability, parental MOLT4; type: cell-based; conditions: for IC50: Homo sapiens, MOLT-4, 72 h, read-out: IC50, antiproliferative activity
Wee1 [10] = molecular target: T1, Wee1; test: KINOMEscan profiling; type: binding; conditions: 1 μM
[11] = tested on: OVCAR8, COV283, and Kuramochi ovarian cancer cell lines; test: Viability in ovarian cancer cell line panel; type: cell-based
Aiolos (IKZF3) = Aiolos (IKZF3) (Homo sapiens, UniProt Q96SW2+Q9UKT9); test: IKZF3 degradation, proteomics/immunoblotting; type: cell-based
Chain of Aiolos (IKZF3) (Q9UKT9 whole entry): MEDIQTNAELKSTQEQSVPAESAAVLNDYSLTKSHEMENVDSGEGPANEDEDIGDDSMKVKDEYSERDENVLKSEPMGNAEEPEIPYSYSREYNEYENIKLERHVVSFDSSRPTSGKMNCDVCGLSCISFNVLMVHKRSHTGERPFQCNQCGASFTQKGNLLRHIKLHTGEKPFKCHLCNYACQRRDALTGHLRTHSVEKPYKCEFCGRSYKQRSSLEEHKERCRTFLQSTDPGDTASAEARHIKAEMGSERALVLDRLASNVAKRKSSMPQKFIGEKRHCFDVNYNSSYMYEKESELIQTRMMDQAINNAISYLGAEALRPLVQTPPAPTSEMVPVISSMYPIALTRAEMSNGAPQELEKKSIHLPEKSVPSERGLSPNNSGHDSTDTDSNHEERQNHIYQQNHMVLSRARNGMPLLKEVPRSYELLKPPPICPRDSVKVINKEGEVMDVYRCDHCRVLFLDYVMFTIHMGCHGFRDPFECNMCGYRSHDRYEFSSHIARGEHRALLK
Chain of Aiolos (IKZF3) (Q96SW2 whole entry): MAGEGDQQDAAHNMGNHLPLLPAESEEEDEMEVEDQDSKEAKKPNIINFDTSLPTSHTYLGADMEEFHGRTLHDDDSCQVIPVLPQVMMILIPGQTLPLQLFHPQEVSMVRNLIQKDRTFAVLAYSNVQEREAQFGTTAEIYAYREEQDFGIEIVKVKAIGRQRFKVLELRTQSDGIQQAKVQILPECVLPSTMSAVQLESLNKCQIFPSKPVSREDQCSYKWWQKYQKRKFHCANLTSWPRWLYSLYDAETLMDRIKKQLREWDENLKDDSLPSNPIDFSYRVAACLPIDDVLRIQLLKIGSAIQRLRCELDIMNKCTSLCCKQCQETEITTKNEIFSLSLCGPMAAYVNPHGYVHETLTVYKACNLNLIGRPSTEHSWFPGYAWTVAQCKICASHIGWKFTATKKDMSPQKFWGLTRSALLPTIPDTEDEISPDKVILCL
Chain of Aiolos (IKZF3) (Q16531 whole entry partner): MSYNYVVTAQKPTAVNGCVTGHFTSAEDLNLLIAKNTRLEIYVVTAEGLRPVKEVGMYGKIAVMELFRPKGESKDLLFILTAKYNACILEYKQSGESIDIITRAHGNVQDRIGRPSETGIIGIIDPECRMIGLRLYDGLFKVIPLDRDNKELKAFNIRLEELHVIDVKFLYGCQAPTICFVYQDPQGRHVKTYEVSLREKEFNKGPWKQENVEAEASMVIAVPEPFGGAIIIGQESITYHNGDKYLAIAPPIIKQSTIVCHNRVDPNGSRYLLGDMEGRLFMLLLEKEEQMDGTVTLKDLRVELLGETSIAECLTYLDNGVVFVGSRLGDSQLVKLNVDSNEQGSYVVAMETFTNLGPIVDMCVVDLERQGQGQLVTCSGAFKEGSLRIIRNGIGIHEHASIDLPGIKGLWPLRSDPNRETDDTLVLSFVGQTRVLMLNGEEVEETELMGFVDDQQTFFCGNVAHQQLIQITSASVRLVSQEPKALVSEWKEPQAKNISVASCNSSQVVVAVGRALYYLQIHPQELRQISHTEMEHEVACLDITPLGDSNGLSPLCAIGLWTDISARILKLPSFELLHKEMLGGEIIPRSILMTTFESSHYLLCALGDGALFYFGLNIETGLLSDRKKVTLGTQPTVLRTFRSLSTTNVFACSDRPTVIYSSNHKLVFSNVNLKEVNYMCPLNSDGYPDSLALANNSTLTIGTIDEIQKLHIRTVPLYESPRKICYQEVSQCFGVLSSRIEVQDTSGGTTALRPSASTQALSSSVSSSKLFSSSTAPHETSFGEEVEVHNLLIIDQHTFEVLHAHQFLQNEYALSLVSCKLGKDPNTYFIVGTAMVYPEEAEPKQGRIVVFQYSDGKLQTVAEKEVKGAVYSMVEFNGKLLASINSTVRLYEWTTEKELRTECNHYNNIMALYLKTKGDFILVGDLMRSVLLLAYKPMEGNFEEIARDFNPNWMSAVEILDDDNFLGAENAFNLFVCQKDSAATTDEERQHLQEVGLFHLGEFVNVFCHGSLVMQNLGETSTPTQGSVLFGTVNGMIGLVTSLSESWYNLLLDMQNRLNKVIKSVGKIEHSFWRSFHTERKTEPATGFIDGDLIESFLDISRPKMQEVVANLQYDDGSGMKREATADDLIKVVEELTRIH

Wee1 [12] = molecular target: T1, Wee1; test: Wee1 degradation in OVCAR8 cells; type: cell-based
Wee1 [13] = molecular target: T1, Wee1; test: Immunoblot of Wee1 degradation in CRBN−/− MOLT4 cells; type: cell-based; conditions: 5 hrs
Ikaros (IKZF1) = Ikaros (IKZF1) (Homo sapiens, UniProt Q13422+Q96SW2); test: IKZF1 degradation, proteomics/immunoblotting; type: cell-based
Chain of Ikaros (IKZF1) (Q13422 whole entry): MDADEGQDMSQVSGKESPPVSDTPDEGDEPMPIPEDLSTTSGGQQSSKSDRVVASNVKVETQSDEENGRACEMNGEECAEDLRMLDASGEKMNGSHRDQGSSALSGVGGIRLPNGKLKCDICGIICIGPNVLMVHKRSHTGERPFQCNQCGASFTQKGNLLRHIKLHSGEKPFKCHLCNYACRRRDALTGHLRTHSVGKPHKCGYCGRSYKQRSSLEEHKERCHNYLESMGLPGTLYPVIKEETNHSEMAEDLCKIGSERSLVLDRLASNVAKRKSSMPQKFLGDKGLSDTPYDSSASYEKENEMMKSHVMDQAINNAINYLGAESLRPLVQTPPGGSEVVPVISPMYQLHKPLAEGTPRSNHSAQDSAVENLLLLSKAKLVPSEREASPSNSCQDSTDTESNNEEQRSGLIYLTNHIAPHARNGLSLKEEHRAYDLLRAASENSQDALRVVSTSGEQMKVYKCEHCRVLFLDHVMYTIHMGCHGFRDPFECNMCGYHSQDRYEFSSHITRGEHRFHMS
Chain of Ikaros (IKZF1) (Q96SW2 whole entry): as the sequence (Q96SW2 whole entry) above
Chain of Ikaros (IKZF1) (Q16531 whole entry partner): as the sequence (Q16531 whole entry partner) above

[14] = tested on: BT549, HCC1806, COV362, Kuramochi, OVCAR8 cell lines; test: Image-based cell cycle assay in TNBC and ovarian cancer cell lines
CRBN−/− MOLT4 cells = test: Cell cycle analysis by propidium iodide staining, CRBN−/− MOLT4; type: cell-based; conditions: 100 nM, 24 hrs
MOLT4 CRBN−/− cells = test: CellTiter-Glo cell viability, CRBN−/− MOLT4; type: cell-based; conditions: 72 hrs
[15] = tested on: OCE1 non-malignant ovarian line; test: Viability in non-malignant ovarian line; type: cell-based
PLK1 [16] = molecular target: T2, PLK1; test: PLK1 abundance by proteomics and immunoblot in MOLT4 cells; type: cell-based; conditions: proteomics (100 nM, 2 hrs) or immunoblot
[17] = tested on: phosphorylation of CDK1 at Tyr15 (pCDK1 Y15); test: Immunoblot of pCDK1 Y15 in CRBN−/− MOLT4 cells; type: cell-based; conditions: 5 hrs
ZFP91 = ZFP91 (Homo sapiens, UniProt Q96JP5+Q96SW2); test: ZFP91 abundance by proteomics in MOLT4 cells; type: cell-based; conditions: 100 nM, 2 hrs
Chain of ZFP91 (Q96JP5 whole entry): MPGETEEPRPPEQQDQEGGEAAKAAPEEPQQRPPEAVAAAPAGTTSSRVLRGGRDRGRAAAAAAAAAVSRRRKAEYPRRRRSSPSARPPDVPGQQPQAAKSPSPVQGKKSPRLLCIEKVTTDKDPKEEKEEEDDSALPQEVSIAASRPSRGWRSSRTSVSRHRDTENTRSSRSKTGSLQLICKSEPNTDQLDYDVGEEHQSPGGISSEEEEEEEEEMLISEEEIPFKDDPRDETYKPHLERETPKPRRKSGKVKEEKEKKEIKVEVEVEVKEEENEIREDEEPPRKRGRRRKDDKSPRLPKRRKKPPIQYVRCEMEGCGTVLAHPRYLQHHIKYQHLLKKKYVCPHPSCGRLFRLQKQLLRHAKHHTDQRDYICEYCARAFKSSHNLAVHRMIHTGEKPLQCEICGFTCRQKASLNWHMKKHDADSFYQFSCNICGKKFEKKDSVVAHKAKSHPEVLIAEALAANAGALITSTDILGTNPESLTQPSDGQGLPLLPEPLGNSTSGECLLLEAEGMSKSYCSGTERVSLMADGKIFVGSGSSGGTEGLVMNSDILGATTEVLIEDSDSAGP
Chain of ZFP91 (Q96SW2 whole entry): as the sequence (Q96SW2 whole entry) above
Chain of ZFP91 (Q16531 whole entry partner): as the sequence (Q16531 whole entry partner) above

[18] = 24 hr treatment, immunoblotting
[19] = MOLT4 cells, 2 hrs pretreatment then 5 hrs co-treatment

SMILES: C=CCn1c(=O)c2cnc(Nc3ccc(N4CCN(CCCNC(=O)CCOCCOCCNc5cccc6c5C(=O)N(C5CCC(=O)NC5=O)C6=O)CC4)cc3)nc2n1-c1cccc(C(C)(C)O)n1 (stereo not shown) [ZNL-02-012, N-(3-(4-(4-((2-allyl-1-(6-(2-hydroxypropan-2-yl)pyridin-2-yl)-3-oxo-2,3-dihydro-1H-pyrazolo[3,4-d]pyrimidin-6-yl)amino)phenyl)piperazin-1-yl)propyl)-3-(2-(2-((2-(2,6-dioxopiperidin-3-yl)-1,3-dioxoisoindolin-4-yl)amino)ethoxy)ethoxy)propenamide]
IC50 (Wee1 [5]): 1 to 10 nM
Wee1 degradation (immunoblot, in words) (Wee1 [4]; MOLT4 cells, 5 hr treatment): induced Wee1 degradation
concentration required to achieve maximal Wee1 degradation (Wee1 [4]; MOLT4 cells, 5 hr treatment): 1 µM

SMILES: C=CCn1c(=O)c2cnc(Nc3ccc(N4CCN(C)CC4)cc3)nc2n1-c1cccc(C(C)(C)O)n1 [AZD1775, reference compound]
cell cycle changes [6]: neither ZNL-02-096 nor AZD1775 induced significant cell cycle changes
concentration necessary to produce the same downstream changes ([1]; 24 hr): 1 µM
downstream changes (pCDK1 Y15, PARP cleavage, γH2Ax) ([1]; 24 hr): did not produce these downstream changes
effect on cell cycle (G2/M proportion) (MOLT4 cells [3]): did not appreciably affect the cell cycle
dose needed to elicit the same cell cycle changes as 100 nM ZNL-02-096 (MOLT4 cells [3]): 1 µM
KINOMEscan engagement of PLK1 (PLK1 [7]): strong engagement
effect on pCDK1 Y15 ([8]; MOLT4 cells, 1 μM pretreatment alone, independent of ZNL-02-096 co-treatment): decreased pCDK1 Y15
IC50 (MOLT4 cells [9]): 800 nM
Wee1 degradation (immunoblot, in words) (Wee1 [4]; MOLT4 cells, 5 hr treatment): insufficient to induce Wee1 degradation
KINOMEscan engagement of Wee1 (Wee1 [10]): strong engagement

SMILES: C=CCn1c(=O)c2cnc(Nc3ccc(N4CCN(CCCCCCNc5cccc6c5C(=O)N(C5CCC(=O)NC5=O)C6=O)CC4)cc3)nc2n1-c1cccc(C(C)(C)O)n1 (stereo not shown) [ZNL-02-040, 4-((6-(4-(4-((2-Allyl-1-(6-(2-hydroxypropan-2-yl)pyridin-2-yl)-3-oxo-2,3-dihydro-1H-pyrazolo[3,4-d]pyrimidin-6-yl)amino)phenyl)piperazin-1-yl)hexyl)amino)-2-(2,6-dioxopiperidin-3-yl)isoindoline-1,3-dione]
engagement of recombinant Wee1 (Wee1 [5]): potently engaged recombinant Wee1
Wee1 degradation (immunoblot, in words) (Wee1 [4]; MOLT4 cells, 5 hr treatment): induced Wee1 degradation

SMILES: C=CCn1c(=O)c2cnc(Nc3ccc(N4CCN(CCCNc5cccc6c5C(=O)N(C5CCC(=O)NC5=O)C6=O)CC4)cc3)nc2n1-c1cccc(C(C)(C)O)n1 (stereo not shown) [ZNL-02-096, 4-((3-(4-(4-((2-Allyl-1-(6-(2-hydroxypropan-2-yl)pyridin-2-yl)-3-oxo-2,3-dihydro-1H-pyrazolo[3,4-d]pyrimidin-6-yl)amino)phenyl)piperazin-1-yl)propyl)amino)-2-(2,6-dioxopiperidin-3-yl)isoindoline-1,3-dione]
cell death [11]: induced potent cell death
cell cycle changes [6]: neither ZNL-02-096 nor AZD1775 induced significant cell cycle changes
engagement of recombinant Wee1 (Wee1 [5]): potently engaged recombinant Wee1
IKZF3 degradation (Aiolos (IKZF3); [18]): degradation of both IKZF1 and IKZF3 was apparent
IKZF3 degradation (Aiolos (IKZF3); short time points): no degradation of either IKZF1 or IKZF3
fold lower dose than AZD1775 for the same downstream effects [1]: 10 fold
concentration producing reduced pCDK1 Y15, PARP cleavage and γH2Ax ([1]; 24 hr): 100 nM
IC50 ([2]; read-out: IC50, PRISM): < 1000 nM
concentration of maximal Wee1 degradation (Wee1 [12]): 100 nM
effect on Wee1 abundance (Wee1 [13]): did not affect Wee1 abundance
IKZF1 degradation (Ikaros (IKZF1); [18]): degradation of both IKZF1 and IKZF3 was apparent
IKZF1 degradation (Ikaros (IKZF1); short time points): no degradation of either IKZF1 or IKZF3
synergy with Olaparib (OVCAR8 cells): synergized with Olaparib
G2/M phase accumulation [14]: induced G2/M phase accumulation at lower doses than either ZNL-02-178 or AZD1775
effect on cell cycle (G2/M proportion) (MOLT4 cells [3]): increased the proportion of MOLT4 cells in G2/M in a time-dependent manner
KINOMEscan engagement of PLK1 (PLK1 [7]): strong engagement
G2/M accumulation (CRBN−/− MOLT4 cells): absent
shift in IC50, MOLT4 CRBN−/− versus parental cells (MOLT4 CRBN−/− cells): approximately 6 fold
cytotoxicity [15]: little cytotoxicity
PLK1 downregulation (PLK1 [16]): No downregulation of PLK1
dose from which pCDK1 Y15 is reduced ([8]; parental MOLT4 cells, 5 hrs): 100 nM
IC50 (MOLT4 cells [9]): 390 nM
time to complete Wee1 degradation (Wee1 [4]; MOLT4 cells, 100 nM): ≤ 3 h
Wee1 degradation (Wee1 [4]; MOLT4 cells, 100 nM, within 30 min): over 50%
Wee1 degradation by ZNL-02-096 after MLN4924 pretreatment (Wee1 [4]; [19]): prevented
Wee1 degradation by ZNL-02-096 after carfilzomib pretreatment (Wee1 [4]; [19]): rescued
Wee1 degradation by ZNL-02-096 after pretreatment with excess AZD1775 (Wee1 [4]; [19]): prevented ZNL-02-096-induced Wee1 degradation
Wee1 degradation by ZNL-02-096 after pretreatment with excess pomalidomide (Wee1 [4]; [19]): only partial rescue
Wee1 degradation (immunoblot, in words) (Wee1 [4]; MOLT4 cells, 5 hr treatment): degradation was most pronounced
duration of sustained Wee1 loss (Wee1 [4]; MOLT4 cells, single 100 nM treatment): at least 48 hrs
concentration of maximal Wee1 degradation (Wee1 [4]; parental MOLT4 cells, 5 hrs): 100 nM
concentration at which hook effect is apparent (Wee1 [4]; parental MOLT4 cells, 5 hrs, top concentration): 10 µM
dose from which pCDK1 Y15 is decreased [17]: 1 μM
KINOMEscan engagement of Wee1 (Wee1 [10]): strong engagement
ZFP91 degradation (ZFP91): low levels of ZFP91 degradation

Second part, led by results:

Wee1 degradation (immunoblot, in words) (Wee1 [4]; MOLT4 cells, 5 hr treatment): inhibits but does not degrade Wee1
effect on Wee1 protein levels (Wee1 [4]; MOLT4 cells, out to 48 hrs after treatment): no effect on Wee1 protein levels
SMILES: C=CCn1c(=O)c2cnc(Nc3ccc(N4CCN(CCCNc5cccc6c5C(=O)N(C5CCC(=O)N(C)C5=O)C6=O)CC4)cc3)nc2n1-c1cccc(C(C)(C)O)n1 (stereo not shown) [ZNL-02-178, 4-((3-(4-(4-((2-allyl-1-(6-(2-hydroxypropan-2-yl)pyridin-2-yl)-3-oxo-2,3-dihydro-1H-pyrazolo[3,4-d]pyrimidin-6-yl)amino)phenyl)piperazin-1-yl)propyl)amino)-2-(1-methyl-2,6-dioxopiperidin-3-yl)is oindoline-1,3-dione]
downstream changes (pCDK1 Y15, PARP cleavage, γH2Ax) ([1]; 24 hr): did not produce these downstream changes
potency in PRISM relative to ZNL-02-096 [2]: uniformly less potent
synergy with Olaparib (OVCAR8 cells): less synergistic activity with Olaparib than ZNL-02-096 at low doses
effect on cell cycle (G2/M proportion) (MOLT4 cells [3]): did not appreciably affect the cell cycle

IC50 (Wee1 [5]): 1 to 10 nM
Wee1 degradation (immunoblot, in words) (Wee1 [4]; MOLT4 cells, 5 hr treatment): induced Wee1 degradation
concentration sufficient to degrade Wee1 (Wee1 [4]; MOLT4 cells, 5 hr treatment): 100 nM
SMILES: C=CCn1c(=O)c2cnc(Nc3ccc(N4CCN(CCOCCOCCOCCNc5cccc6c5C(=O)N(C5CCC(=O)NC5=O)C6=O)CC4)cc3)nc2n1-c1cccc(C(C)(C)O)n1 (stereo not shown) [ZNL-02-047, 4-((2-(2-(2-(2-(4-(4-((2-Allyl-1-(6-(2-hydroxypropan-2-yl)pyridin-2-yl)-3-oxo-2,3-dihydro-1H-pyrazolo[3,4-d]pyrimidin-6-yl)amino)phenyl)piperazin-1-yl)ethoxy)ethoxy)ethoxy)ethyl)amino)-2-(2,6-dioxopiperidin-3-yl)isoindoline-1,3-dione]

Wee1 degradation (immunoblot, in words) (Wee1 [4]; MOLT4 cells, 5 hr treatment): insufficient to induce Wee1 degradation
SMILES: Nc1cccc2c1C(=O)N(C1CCC(=O)NC1=O)C2=O (stereo not shown) [pomalidomide, reference compound]
effect on pCDK1 Y15, apoptosis, DNA damage ([1]; 24 hr, 1 μM): did not affect phosphorylation of CDK1 Y15, apoptosis, or levels of DNA damage
synergy with Olaparib (OVCAR8 cells): not synergistic
synergy with AZD1775 (OVCAR8 cells; co-treatment): not synergistic
cytotoxicity (MOLT4 cells [9]; alone, Fig. S3): no detectable cytotoxicity
